Measurements taken from ChEMBL document CHEMBL4725394 (J Med Chem, 2020).
Active and inactive are the calls of the source. The calls are words filed in the database; no cut-off is given here.

Experiments:
[1] = target: T1, Free fatty acid receptor 1 (Homo sapiens, UniProt O14842); assay: Agonist activity at human GPR40 expressed in CHO cells incubated for 60 mins by FLIPR based Ca2+ mobilization assay; type: functional, cell-based
[2] = target: T1, Free fatty acid receptor 1; assay: Agonist activity at human GPR40 expressed in CHO cells incubated for 60 mins by FLIPR based Ca2+ mobilization assay relative to gamma-linolenic acid; type: functional, cell-based; details: filed as agonist
[3] = target: T1, Free fatty acid receptor 1; assay: Binding affinity to human GPR40 expressed in CHO cells by LC-MS analysis; type: cell-based
[4] = Cmax in Wistar Kyoto N-STZ-1.5 rat model of streptozotocin-induced diabetes at 0.1 to 1 mg/kg, po followed by glucose challenge during 2-week-dosing study; type: ADME, organism-based; design: time 2 weeks, dose 0.1-1; details: in vivo
[5] = AUC (0 to 24 hrs) in diabetic patient at 50 mg, po; type: ADME; design: dose 50 mg, time < 24 hr, route oral; details: human, in vivo
[6] = AUC (0 to 24 hrs) in Wistar Kyoto N-STZ-1.5 rat model of streptozotocin-induced diabetes at 0.1 to 1 mg/kg, po followed by glucose challenge during 2-week-dosing study; type: ADME, organism-based; design: time 2 weeks, dose 0.1-1; details: in vivo
[7] = Cmax in diabetic patient at 50 mg, po; type: ADME; design: dose 50 mg, route oral; details: human, in vivo
[8] = target: T1, Free fatty acid receptor 1; assay: Agonist activity at human GPR40 expressed in CHO cells at 10 uM incubated for 60 mins by FLIPR based Ca2+ mobilization assay relative to gamma-linolenic acid; type: functional, cell-based
HepG2 = assay: Cytotoxicity in human HepG2 cells assessed as caspase-3/7 activity level at 30 uM by Caspase-GloTM 3/7 assay relative to staurosporine; type: cell-based; details: hepg2, 24 h, time 1 day
[9] = Cytotoxicity in human HepG2 cells assessed as intracellular ATP content level at 30 uM by ATPlite-M assay relative to control; type: cell-based; details: time 1 day, read-out: Activity
[10] = target: T1, Free fatty acid receptor 1; assay: Agonist activity at human GPR40 expressed in CHO cells at 1 uM incubated for 60 mins by FLIPR based Ca2+ mobilization assay relative to gamma-linolenic acid; type: functional, cell-based
[11] = Oral bioavailability in ICR mouse at 1 mg/kg by high-performance LC-tandem MS analysis; type: ADME, organism-based; details: in vivo
[12] = Volume of distribution at steady state in Sprague-Dawley rat at 0.1 mg/kg, iv by high-performance LC-tandem MS analysis; type: ADME, organism-based; details: in vivo, read-out: Vdss
[13] = Volume of distribution at steady state in ICR mouse at 0.1 mg/kg, iv by high-performance LC-tandem MS analysis; type: ADME, organism-based; details: in vivo, read-out: Vdss
Rattus norvegicus [14] = assay: Stimulation of GLP1 release in Wistar Kyoto N-STZ-1.5 rat model of streptozotocin-induced diabetes at 0.1 to 1 mg/kg, po followed by glucose challenge by ELISA; type: functional, organism-based; details: dose mg/kg 0.1-1
[15] = AUC (0 to 8 hrs ) in ICR mouse at 1 mg/kg, po by high-performance LC-tandem MS analysis; type: ADME, organism-based; design: time < 8 hr, route oral, dose 1 mg/kg; details: in vivo
Rattus norvegicus [16] = assay: Suppression of glucose tolerance in Wistar Kyoto N-STZ-1.5 rat model of streptozotocin-induced diabetes at 0.1 to 1 mg/kg, po followed by glucose challenge; type: functional, organism-based; details: dose mg/kg 0.1-1
[17] = MRT in ICR mouse at 1 mg/kg, po by high-performance LC-tandem MS analysis; type: ADME, organism-based; details: in vivo
Rattus norvegicus [18] = assay: Suppression of body weight in Wistar Kyoto N-STZ-1.5 rat model of streptozotocin-induced diabetes at 0.1 to 1 mg/kg, po followed by glucose challenge during 2-week-dosing study; type: functional, organism-based; details: dose mg/kg 0.1-1, time 2.0 weeks
[19] = Cmax in ICR mouse at 1 mg/kg, po by high-performance LC-tandem MS analysis; type: ADME, organism-based; design: route oral, dose 1 mg/kg; details: in vivo
[20] = AUC (0 to 8 hrs) in Sprague-Dawley rat at 1 mg/kg, po by high-performance LC-tandem MS analysis; type: ADME, organism-based; design: time < 8 hr, route oral, dose 1 mg/kg; details: in vivo
[21] = Total clearance in ICR mouse at 0.1 mg/kg, iv by high-performance LC-tandem MS analysis; type: ADME, organism-based; details: in vivo
[22] = Oral bioavailability in Sprague-Dawley rat at 1 mg/kg by high-performance LC-tandem MS analysis; type: ADME, organism-based; details: in vivo
[23] = Cmax in Sprague-Dawley rat at 1 mg/kg, po by high-performance LC-tandem MS analysis; type: ADME, organism-based; design: route oral, dose 1 mg/kg; details: in vivo
[24] = target: Voltage-gated inwardly rectifying potassium channel KCNH2 (Homo sapiens, UniProt Q12809); assay: Inhibition of human ERG
[25] = Total clearance in Sprague-Dawley rat at 0.1 mg/kg, iv by high-performance LC-tandem MS analysis; type: ADME, organism-based; details: in vivo
[26] = MRT in Sprague-Dawley rat at 1 mg/kg, po by high-performance LC-tandem MS analysis; type: ADME, organism-based; details: in vivo
Rattus norvegicus [27] = assay: Stimulation of insulin secretion in Wistar Kyoto N-STZ-1.5 rat model of streptozotocin-induced diabetes at 0.1 to 1 mg/kg, po followed by glucose challenge by ELISA; type: functional, organism-based; details: dose mg/kg 0.1-1
[28] = target: T1, Free fatty acid receptor 1; assay: Binding affinity to human GPR40 expressed in CHO cells in presence of 10 and 100 nM […] by LC-MS analysis based competitive binding assay; type: cell-based; details: filed as agonist, dose nM 10-100
[29] = target: T1, Free fatty acid receptor 1; assay: Binding affinity to human GPR40 expressed in CHO cells assessed as formation of protein-ternary complex by LC-MS analysis; type: cell-based; details: filed as agonist
Rattus norvegicus [30] = assay: Suppression of glucose tolerance in Wistar Kyoto N-STZ-1.5 rat model of streptozotocin-induced diabetes at 10 mg/kg, po followed by glucose challenge; type: functional, organism-based
Rattus norvegicus [31] = assay: Stimulation of insulin secretion in Wistar Kyoto N-STZ-1.5 rat model of streptozotocin-induced diabetes at 10 mg/kg, po followed by glucose challenge by ELISA; type: functional, organism-based

T1 sequence (O14842 whole entry): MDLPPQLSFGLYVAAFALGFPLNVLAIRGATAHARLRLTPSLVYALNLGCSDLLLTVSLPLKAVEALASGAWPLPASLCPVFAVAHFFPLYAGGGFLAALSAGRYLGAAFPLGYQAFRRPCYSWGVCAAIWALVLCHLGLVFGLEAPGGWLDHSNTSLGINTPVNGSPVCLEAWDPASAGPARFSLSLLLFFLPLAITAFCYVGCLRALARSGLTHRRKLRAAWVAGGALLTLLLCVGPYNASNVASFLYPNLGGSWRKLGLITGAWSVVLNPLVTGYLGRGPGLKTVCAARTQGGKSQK
Sequence of Voltage-gated inwardly rectifying potassium channel KCNH2 (Q12809 whole entry): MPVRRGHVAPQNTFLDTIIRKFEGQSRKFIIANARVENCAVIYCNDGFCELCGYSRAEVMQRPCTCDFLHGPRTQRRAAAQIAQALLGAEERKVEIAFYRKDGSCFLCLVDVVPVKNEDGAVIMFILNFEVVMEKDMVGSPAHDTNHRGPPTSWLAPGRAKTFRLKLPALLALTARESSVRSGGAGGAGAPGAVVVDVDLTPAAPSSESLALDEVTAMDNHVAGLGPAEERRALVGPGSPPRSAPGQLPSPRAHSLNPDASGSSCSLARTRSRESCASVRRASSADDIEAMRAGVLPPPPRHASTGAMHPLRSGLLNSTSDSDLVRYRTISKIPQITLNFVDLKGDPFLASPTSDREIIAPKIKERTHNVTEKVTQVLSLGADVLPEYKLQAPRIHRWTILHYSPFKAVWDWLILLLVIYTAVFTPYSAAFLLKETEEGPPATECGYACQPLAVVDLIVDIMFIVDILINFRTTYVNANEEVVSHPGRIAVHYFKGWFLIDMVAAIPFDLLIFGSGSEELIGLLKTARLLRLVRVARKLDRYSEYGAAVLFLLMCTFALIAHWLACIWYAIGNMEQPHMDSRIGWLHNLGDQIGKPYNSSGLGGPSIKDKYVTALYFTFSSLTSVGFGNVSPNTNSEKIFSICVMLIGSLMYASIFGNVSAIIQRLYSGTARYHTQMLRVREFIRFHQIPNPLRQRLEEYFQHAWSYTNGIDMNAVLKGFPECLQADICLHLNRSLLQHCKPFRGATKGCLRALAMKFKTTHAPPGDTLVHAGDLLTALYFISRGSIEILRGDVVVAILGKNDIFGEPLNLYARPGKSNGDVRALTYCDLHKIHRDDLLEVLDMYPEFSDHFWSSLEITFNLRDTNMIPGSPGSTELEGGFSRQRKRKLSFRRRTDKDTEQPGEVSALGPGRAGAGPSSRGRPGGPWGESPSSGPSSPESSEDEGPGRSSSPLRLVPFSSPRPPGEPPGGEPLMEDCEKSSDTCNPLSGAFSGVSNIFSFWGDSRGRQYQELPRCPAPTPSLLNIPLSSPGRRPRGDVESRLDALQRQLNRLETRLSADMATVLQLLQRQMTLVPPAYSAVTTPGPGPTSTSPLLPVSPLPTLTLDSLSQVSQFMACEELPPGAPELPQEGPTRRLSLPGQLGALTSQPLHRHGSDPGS

SMILES | EC50 [1] | Emax [2] | Activity (HepG2) | viability at 24 h, 30 µM [9] | also measured
COCC(CC(=O)O)c1cccc(OCC2CCN(c3cc(OC)ccc3C(=O)N(CC(C)(C)C)c3cccc(C)n3)CC2)c1 (stereo unspecified) | 120 nM | 104% | – | – | –
COc1ccc(F)c(-c2ccc(COc3cccc([C@@H](CC(=O)O)C4CC4)c3)cc2C2=CCCC2(C)C)c1 | 150 nM | 182% | – | – | Kd [3]: 5 nM
Cc1cc(OCCCS(C)(=O)=O)cc(C)c1-c1cccc(COc2ccc3c(c2)OC[C@H]3CC(=O)O)c1 | – | – | – | – | Cmax [4]: 39.8 ng/mL; AUC(0-t) at 24 h [5]: 100000 ng·h/mL; AUC(0-t) at 336 h [6]: 255 ng·h/mL; Cmax [7]: 5300 ng/mL
COc1ccc(C(=O)N(CC(C)(C)C)c2cccc(C)n2)c(N2CCC(COc3cc(C(CC(=O)O)C4CC4)ccn3)CC2)c1 (stereo unspecified) | 17 nM | 112% | – | – | –
COc1ccc(C(=O)N(CC(C)(C)C)c2cccc(C)n2)c(N2CCC(COc3cccc(C(CC(=O)O)C4CC4)n3)CC2)c1 (stereo unspecified) | – | – | – | – | Activity [8]: 39%
COc1cccc(N2CCC(COc3cccc(C(CC(=O)O)C4CC4)c3)CC2)c1 (stereo unspecified) | – | – | -1.1% | 92% | Activity ([8]; filed as agonist): 91%; Activity [10]: 8%
COc1ccc(C(=O)N(CC(C)C)c2ccccn2)c(N2CCC(COc3cccc(C(CC(=O)O)C4CC4)c3)CC2)c1 (stereo unspecified) | 29 nM | 107% | – | – | –
COc1ccc(C(=O)N(CC(C)(C)C)c2cccc(C)n2)c(N2CCC(COc3cccc(C4(CC(=O)O)COC4)c3)CC2)c1 | 840 nM | 115% | – | – | –
COc1ccc(C(=O)N(CC(C)(C)C)c2cccc(C)n2)c(N2CCC(COc3cc([C@@H](CC(=O)O)C4CC4)ccn3)CC2)c1 | 12 nM | 108% | – | 92.1% | Cmax [4]: 139 ng/mL; AUC(0-t) at 336 h [6]: 626 ng·h/mL; bioavailability [11]: 26%; Vd [12]: 3.09 L/kg; Vd [13]: 1.35 L/kg; Activity (Rattus norvegicus [14]): Active; AUC(0-t) at 8 h [15]: 98.7 ng·h/mL; Activity (Rattus norvegicus [16]): Active; MRT [17]: 2.3 h; Activity (Rattus norvegicus [18]): Active; Cmax [19]: 33.2 ng/mL; AUC(0-t) at 8 h [20]: 127 ng·h/mL; clearance [21]: 43.1 mL/min/kg; bioavailability [22]: 16%; Cmax [23]: 19.9 ng/mL; IC50 [24]: > 10000 nM; clearance [25]: 24.6 mL/min/kg; MRT [26]: 4.1 h; Activity (Rattus norvegicus [27]): Active
COc1ccc(CCCC(C)(C)C)c(N2CCC(Oc3cccc(C(CC(=O)O)C4CC4)c3)CC2)c1 (stereo unspecified) | – | – | – | – | Activity [8]: 22%
COc1ccc(C(=O)N(C)CC(C)(C)C)c(N2CCC(COc3cccc(C(CC(=O)O)C4CC4)c3)CC2)c1 (stereo unspecified) | 100 nM | 107% | 6.6% | 82.2% | –
COc1ccc(C(=O)N(CC(C)(C)C)c2cccc(C)n2)c(N2CCC(COc3cccc(C(CC(=O)O)OC)c3)CC2)c1 (stereo unspecified) | 62 nM | 109% | – | – | –
COc1ccc(F)c(N2CCC(COc3cccc(C(CC(=O)O)C4CC4)c3)CC2)c1 (stereo unspecified) | 670 nM | 114% | -1.7% | 72.7% | –
COc1ccc(C(=O)N(CC(C)(C)C)c2cccc(C)n2)c(N2CCC(COc3cc([C@H](CC(=O)O)C4CC4)ccn3)CC2)c1 | 83 nM | 109% | – | – | –
COc1ccc(CCCC(C)(C)C)c(-c2ccc(COc3cccc(C(CC(=O)O)C4CC4)c3)cc2)c1 (stereo unspecified) | 410 nM | 105% | – | – | –
COc1ccc(CCCC(C)(C)C)c(N2CCC(COc3cccc(C(CC(=O)O)C4CC4)c3)CC2)c1 (stereo unspecified) | 11 nM | 106% | 26% | 0.1% | Activity [28]: Active; Activity [29]: Active

SMILES | EC50 [1] | Emax [2] | Activity (HepG2) | viability at 24 h, 30 µM [9] | also measured
COc1ccc(C(=O)N(CC(C)(C)C)c2cccc(C)n2)c(N2CCC(COc3cccc(C(CC(=O)O)C4CC4)c3)CC2)c1 (stereo unspecified) | 17 nM | 109% | – | – | –
COc1ccc(C(=O)N(C)c2ccccc2)c(N2CCC(COc3cccc(C(CC(=O)O)C4CC4)c3)CC2)c1 (stereo unspecified) | 140 nM | 101% | 2.8% | 79.3% | –
COc1ccc(F)c(-c2ccc(COc3cccc([C@@H](CC(=O)O)C4CC4)c3)nc2CC(C)(C)C)c1 | 150 nM | 66% | – | – | –
CCOC(CC(=O)O)c1cccc(OCC2CCN(c3cc(OC)ccc3C(=O)N(CC(C)(C)C)c3cccc(C)n3)CC2)c1 (stereo unspecified) | 74 nM | 104% | – | – | –
COc1ccc(C(C)C)c(N2CCC(COc3cccc(C(CC(=O)O)C4CC4)c3)CC2)c1 (stereo unspecified) | 120 nM | 117% | 43.4% | 0.1% | –
COc1ccc(CN(C)CC(C)C)c(N2CCC(COc3cccc(C(CC(=O)O)C4CC4)c3)CC2)c1 (stereo unspecified) | 1000 nM | 110% | -1.1% | 80.7% | –
COc1ccc(C(=O)N(CC(C)(C)C)c2ccccn2)c(N2CCC(COc3cccc(C(CC(=O)O)C4CC4)c3)CC2)c1 (stereo unspecified) | 26 nM | 110% | – | – | –
N[C@@H](CC(=O)N1CCn2c(nnc2C(F)(F)F)C1)Cc1cc(F)c(F)cc1F | – | – | – | – | Activity (Rattus norvegicus [30]): Active; Activity (Rattus norvegicus [31]): Active
COc1ccc(CCCC(C)(C)C)c(N2CC(COc3cccc(C(CC(=O)O)C4CC4)c3)C2)c1 (stereo unspecified) | 250 nM | – | – | – | –
COc1ccc(CCC(C)(C)O)c(N2CCC(COc3cccc(C(CC(=O)O)C4CC4)c3)CC2)c1 (stereo unspecified) | 970 nM | 109% | 0.1% | 76.6% | –
COc1ccc(C(=O)N(CC(C)(C)OC)c2ccccn2)c(N2CCC(COc3cccc(C(CC(=O)O)C4CC4)c3)CC2)c1 (stereo unspecified) | 100 nM | 105% | – | – | –
COc1ccc(C)c(N2CCC(COc3cccc(C(CC(=O)O)C4CC4)c3)CC2)c1 (stereo unspecified) | 270 nM | 113% | 8.3% | 67.4% | –
COc1ccc(C(=O)N(C)c2ccccn2)c(N2CCC(COc3cccc(C(CC(=O)O)C4CC4)c3)CC2)c1 (stereo unspecified) | 180 nM | 105% | -1.1% | 83.6% | –
COc1ccc(CCC(C)(C)C)c(N2CCC(COc3cccc(C(CC(=O)O)C4CC4)c3)CC2)c1 (stereo unspecified) | 34 nM | 110% | 67.3% | 0.1% | –
COc1ccc(C(=O)N(CC(C)(C)C#N)c2ccccn2)c(N2CCC(COc3cccc(C(CC(=O)O)C4CC4)c3)CC2)c1 (stereo unspecified) | 160 nM | 108% | – | – | –
